Experimental data published in patent US20240165062A1, “COMPOSITION FOR INCREASING MUSCLE” (YUKI GOSEI KOGYO CO., LTD., priority 2022, published 2024).

Columns and labels:
[1] = system: MyoD gene in C2C12 cells; conditions: vs 1×PBS control, FIG. 2
[2] = system: C2C12 cells; conditions: β-alanine 0.5 mM or 1.0 mM every 2 days, 9 days from induction of differentiation, FIG. 3
[3] = system: MyHCIIa gene in C2C12 cells; conditions: differentiated C2C12 cells, β-alanine 0.5 mM, 1 mM and 10 mM for 2 days, FIG. 4
Method: (§1) FIG. 4 is graphs showing the mRNA expressions of MyHCI (slow muscle)(A), MyHCIIa (fast muscle)(B), MyHCIIx (fast muscle)(C), and MyHCIIb (fast muscle) (D) measured by RT-qPCR in the C2C12 cells wherein the differentiated C2C12 cells were then treated by addition of 0.5, 1, or 10 (mM) of β-alanine for 2 days.
(§2) In this example, β-alanine was added to C2C12 cells and the expression of MyHCI (slow muscle marker), MyHCIIa (fast muscle marker), MyHCIIb (fast muscle marker), and MyHCIIx (fast muscle marker) genes were examined.
(§3) C2C12 cells were seeded in 6-well plates at a concentration of 2.0×10^5 cells/mL, and after 48 hours the medium was replaced with DMEM medium containing 2% Horse Serum (HS) (Thermo Fisher Scientific) to induce differentiation. Further, after 24 hours, the medium was replaced with DMEM medium containing 2% HS. The medium was changed every 2 days thereafter, and further the medium changes and the additions of β-alanine (0.5 mM, 1 mM, or 10 mM) were conducted on the 8th and 9th day after seeding. The cells on 10th day after seeding were used for the experiments. For controls, 1×PBS was added at the same volume as the amount of β-alanine.
(§4) Total RNA preparation and RT-qPCR were performed according to Example 1.

[4] = system: MyHCIIx gene in C2C12 cells; conditions: differentiated C2C12 cells, β-alanine 1 mM and 10 mM for 2 days, FIG. 4
Method: as §1, §2, §3, §4

[5] = system: MyHCI gene in C2C12 cells; conditions: differentiated C2C12 cells, β-alanine 0.5 mM, 1 mM and 10 mM for 2 days, FIG. 4
Method: as §1, §2, §3, §4

[6] = system: MyHCIIb gene in C2C12 cells; conditions: differentiated C2C12 cells, β-alanine 1 mM and 10 mM for 2 days, FIG. 4
Method: as §1, §2, §3, §4

[7] = system: MyHCIIa gene in C2C12 cells; conditions: β-alanine added twice at 24 h interval, vs 1×PBS control, FIG. 1
Method: as §2
(§5) High Pure RNA Isolation Kit (Roche, Basel, Switzerland) was used for total RNA preparation. C2C12 cells were seeded at a concentration of 5.0×10^4 cells/mL in 5 mL Dish. After 24 hours of incubation, β-alanine was added. 1×PBS was added to the control cells at the same volume as the added amount of β-alanine. Twenty-four hours after the addition of 3-alanine, sample was secondary added. After 24 hours of incubation, the culture supernatant was aspirated off. After washing the cells twice with 1×PBS, 1×PBS 200 μL/dish and […] of Lysis/-binding buffer included in High Pure RNA Isolation Kit were added to the entire dish, and the total amount was collected in a 1.5-mL tube. The collected samples were suspended using a vortex mixer for 60 seconds. The filter tube and the collection tube in the kit were assembled, the sample solution was added to the filter tube, and centrifuged at 4° C., 9200×g for 15 seconds. The liquid drained into the collection tube was discarded, and the filter tube and collection tube were assembled again. In a 1.5-mL tube, 90 μL of DNase Incubation Buffer per sample and 10 μL of DNase I per sample were mixed. The mixture was added to the filter tubes and incubated at room temperature for 15 minutes. After incubation, Wash buffer I (500 μL) was added to the filter tubes and centrifuged at 4° C., 9200×g for 15 seconds.

[8] = system: MyHCIIx gene in C2C12 cells; conditions: β-alanine added twice at 24 h interval, vs 1×PBS control, FIG. 1
Method: as §2, §5

[9] = system: MyHCI gene in C2C12 cells; conditions: β-alanine added twice at 24 h interval, vs 1×PBS control, FIG. 1
Method: as §2, §5

[10] = system: MyHCIIb gene in C2C12 cells; conditions: β-alanine added twice at 24 h interval, vs 1×PBS control, FIG. 1
Method: as §2, §5

SMILES: NCCC(=O)O [β-alanine]
- expression of MyoD, a transcriptional regulator of muscle differentiation [1]: increased
- differentiation of myoblasts into myotube cells [2]: promoted
- number of myotubular cells [2]: increased
- ratio of slow muscle cells (slow muscle area / myotube area) [2]: increased as the amount of β-alanine increased
- MyHCIIa (fast muscle marker) gene expression [3]: concentration-dependent enhancement
- MyHCIIx (fast muscle) mRNA expression [4]: significantly increased
- MyHCI (slow muscle marker) mRNA expression [5]: significantly increased
- MyHCIIb (fast muscle) mRNA expression [6]: significantly increased
- expression of the fast muscle marker MyHCIIa [7]: increased
- expression of the fast muscle marker MyHCIIx [8]: increased
- expression of the slow muscle marker MyHCI [9]: increased
- expression of the fast muscle marker MyHCIIb [10]: increased
